# Reference: patent EP0419676B1, “THIONAPHTHALENE DERIVATIVES, METHOD OF PRODUCING THE SAME, AND ANTIALLERGIC AGENT CONTAINING THE SAME” (TEIJIN LIMITED, priority 1989, dated 1990)
# Where two headings read alike, the source gives them in different places.
# What was measured:
# [1] = tested on: peritoneal mast cells of rat; test: Histamine release from peritoneal mast cells induced by Compound 48/80 (non-allergic release); format: cell-based, Sprague-Dawley strain male rat; settings: for inhibition at 10 µM: Rattus norvegicus, Mast cell, 10 min, read-out: Inhibitory ratio (%) histamine release
# Procedure: (§1) To a Sprague-Dawley strain male rat (10 weeks or older) was intraperitoneally administered, under ether anesthesia, a diluted rat anti-DNP-As IgE serum at 2 ml/kg. After 16 hours, cells were recovered by washing intraperitoneally with a Tyrode solution containing 0.5% heparin (Ca⁺⁺, Mg⁺⁺, free). Mast cells (5 x 10⁴) separated by overlying in the 30% Ficoll/Tyrode solution and centrifugation were reliberated into the Tyrode solution (Ca⁺⁺, Mg⁺⁺) and incubated with the addition of the drug solution shown in Table 3-1, for 10 minutes, and then DNP-As and phosphatidylserine were added to final concentrations of 20 µg/ml and 25 µg/ml, respectively, followed by incubation for 10 minutes. The reaction was stopped by ice-cooling, and the histamine release in the supernatant was determined by fluorophotometry. Regarding the non-allergy release, 5 x 10⁴ of mast cells were investigated by incubation with 0.5 µg/ml of Compound 48/80 for 10 minutes, after the addition of the drug solution shown in Table 3-2.
# [2] = tested on: peritoneal mast cells of rat; test: Histamine release from IgE-sensitized peritoneal mast cells, DNP-As antigen (allergic release); format: cell-based, Sprague-Dawley strain male rat
# Procedure: as §1, with “fluorophotometry.” for “fluorophotometry. Regarding the non-allergy release, 5 x 10⁴ of mast cells were investigated by incubation with 0.5 µg/ml of Compound 48/80 for 10 minutes, after the addition of the drug solution shown in Table 3-2.”
# [3] = tested on: Rat homologous PCA reaction; test: Rat homologous PCA reaction; format: in vivo, Sprague-Dawley strain male rat; settings: p.o., 1 hour before antigen
# Procedure: The back of a Sprague-Dawley strain male rat (6 - 8 w) was depilated, and at one site on both sides thereof, 0.1 ml of a rat anti-ovalbumin IgE serum diluted with physiological saline was intradermally injected under ether anesthesia. After 48 hours, 25 mg/kg of ovalbumin, 25 mg/kg of Evans Blue were intravenously administered to induce the PCA reaction, and after 30 minutes, the skin was peeled off, dipped in a mixture of 0.3% Na₂SO₄·10H₂O/Acetate (3:7), and the dye amount infiltrated was quantitated by absorbance at 620 nm. The drug listed in Table 4 was suspended in 5% gum arabic solution and orally administered 1 hour before the antigen administration.
# [4] = tested on: anti-TNP IgE antibody production; test: IgE antibody production suppressive effect: anti-TNP IgE production by cultured spleen cells of TNP-KLH-immunized mouse; format: cell-based, BALB/C mouse
# Procedure: An 8 weeks old BALB/C mouse (♀) was immunized by an intraperitoneal injection of 10 µg of TNP-KLH (trinitrophenyl-key hole limpet hemocyanine) and 2 mg of aluminum hydroxide gel, and after 3 weeks, 1 µg of TNP-KLH and 2 mg of aluminum hydroxide gel were boosted, and 4 weeks later, the spleen was enucleated.
# The spleen cells (6 x 10⁶) were cultured together with 10 ng/ml of TNP-KLH, in the presence or non-presence of the compound of the present invention (10⁻⁵ to 10⁻⁷ M), in 1 ml of RPMI-1640 medium (containing 10% fetal bovine serum) for 2 days, followed by washing to remove the antigen and the drug, and the washed cells were resuspended in a fresh medium containing no antigen and further cultured for 5 days. All cultivations were performed under 5% CO₂ at 37°C. After completion of the culturing, the supernatant was recovered, and the concentration of anti-TNP IgE or anti-TNP IgG antibody was determined by an antigen and isotype specific immunoassay. […]
# The values in the brackets ( ) indicate the values of the spontaneous IgE production amount observed when TNP-KLH was not added, and represent the IgE production dependency on the antigen.
# The same experimental methods were used for the compounds shown below, and IgE antibody production suppressive effects were evaluated. […] (Exemplary compound VI - (1)): methyl (6,7-dimethoxy-2-naphthylthio)acetate (Exemplary compound V - (4)): N-(2-methoxycarbonylphenyl)-(6,7-dihydroxy-2-naphthylthio)acetamide (Exemplary compound V - (2)): N-tetrazolyl(6,7-dihydroxy-2-naphthylthio)acetamide Table 2
# Lipoxygenase = target: T1, Lipoxygenase (Homo sapiens, UniProt P09917); test: Lipoxygenase inhibitory activity evaluation: LTB4 and 5-HETE production in A23187-stimulated whole blood; format: cell-based, healthy man; settings: 10⁻⁵ M, A23187 25 µM; for Amount of LTB₄ produced: no addition 125; for Amount of 5-HETE produced: no addition 130
# T1 construct: heparin-treated vein blood of a healthy person; from tissue; host or cells: human heparinised venous whole blood (leukocytes)
# T1 sequence (P09917 1-674): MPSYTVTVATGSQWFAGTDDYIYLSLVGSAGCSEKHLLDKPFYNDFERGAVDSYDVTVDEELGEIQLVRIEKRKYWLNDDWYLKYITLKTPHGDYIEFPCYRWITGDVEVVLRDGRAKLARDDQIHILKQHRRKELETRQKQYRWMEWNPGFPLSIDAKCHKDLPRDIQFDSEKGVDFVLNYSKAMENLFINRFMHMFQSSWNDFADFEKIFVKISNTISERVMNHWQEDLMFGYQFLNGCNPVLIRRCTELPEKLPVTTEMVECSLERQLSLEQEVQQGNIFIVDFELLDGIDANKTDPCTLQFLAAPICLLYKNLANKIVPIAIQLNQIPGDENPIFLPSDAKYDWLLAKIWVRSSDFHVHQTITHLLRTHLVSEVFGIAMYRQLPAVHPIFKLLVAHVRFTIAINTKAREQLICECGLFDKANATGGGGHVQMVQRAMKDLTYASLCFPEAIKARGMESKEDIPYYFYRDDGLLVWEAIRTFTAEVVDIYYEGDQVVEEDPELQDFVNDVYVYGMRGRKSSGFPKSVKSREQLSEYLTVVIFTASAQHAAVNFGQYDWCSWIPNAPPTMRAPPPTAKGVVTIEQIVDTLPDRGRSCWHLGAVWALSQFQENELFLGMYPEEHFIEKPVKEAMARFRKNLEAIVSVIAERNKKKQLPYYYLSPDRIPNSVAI
# Procedure: To 1 ml of heparin-treated vein blood of a healthy person without an administration of drugs was added 1 µl of a DMSO solution of the drug test sample listed in Table 5 (final 10⁻⁵ M), and after treatment at 37°C for 5 minutes, 5 µl of a DMSO solution of A23187 was added (final 25 µM) and the treatment carried out at 37°C for 15 minutes, followed by ice-cooling. After the addition of 10 µl of a DMSO solution of 100 ng of 15-HETE as the internal standard substance for quantitation, 0.8 ml of acetonitrile was added, and the precipitates formed were removed by centrifugation. Then, LTB₄ and 5-HETE in the supernatant were subjected to HPLC separation and quantitation (ref. F.J. Sweeney, et al., Prostaglandins Leukotrienes & Med., 28, 73 (1987)).
# [5] = Experiment 1, 10⁻⁵ M, Compound 48/80 0.5 µg/ml
# [6] = Experiment 2, 10⁻⁵ M, Compound 48/80 0.5 µg/ml
smiles,measurement,setting,value
"O=C(O)CSc1ccc2cc(O)c(O)cc2c1 [Exemplary compound IV-(2), (6,7-Dihydroxy-2-naphthylthio)acetic acid]",suppressive action against non-allergy histamine release (in words),[1],weak suppressive actions
same,suppressive action against allergy histamine release (in words),[2],suppressive actions
"O=C(CSc1ccc2cc(O)c(O)cc2c1)Nc1nnn[nH]1 [Exemplary compound V-(2), N-5-tetrazolyl(6,7-dihydroxy-2-naphthylthio)-acetamide]",Suppressive ratio (%) Experiment 1,[3]; 25 mg/kg,-0.3%
same,inhibition at 10 µM,[1]; [5],2.2%
same,Suppressive ratio (IgE antibody production),[4]; 10⁻⁷ M,11%
"O=C(CSc1ccc2cc(O)c(O)cc2c1)Nc1ccccc1C(=O)O [Exemplary compound V-(3), N-(2-carboxyphenyl)(6,7-dihydroxy-2-naphthylthio)acetamide]",Suppressive ratio (%) Experiment 1,[3]; 25 mg/kg,-18.0%
same,inhibition at 10 µM,[1]; [5],1.3%
"COC(=O)c1ccccc1NC(=O)CSc1ccc2cc(O)c(O)cc2c1 [Exemplary compound V-(4), N-(2-methoxycarbonylphenyl)(6,7-dihydroxy-2-naphthylthio)acetamide]",Suppressive ratio (%) Experiment 1,[3]; 25 mg/kg,0%
same,inhibition at 10 µM,[1]; [5],-0.8%
same,Suppressive ratio (IgE antibody production),[4]; 10⁻⁶ M,7%
same,Suppressive ratio (IgE antibody production),[4]; 10⁻⁷ M,26%
"O=C(CSc1ccc2cc(O)c(O)cc2c1)Nc1ccccc1-c1nnn[nH]1 [Exemplary compound V-(5), N-[2-(5-tetrazolyl)phenyl](6,7-dihydroxy-2-naphthylthio)acetamide]",Suppressive ratio (%) Experiment 2,[3]; 25 mg/kg,16.5%
same,inhibition at 10 µM,[1]; [5],28.1%
"O=C(CSc1ccc2cc(O)c(O)cc2c1)NCCCCN1CCN(C(c2ccc(F)cc2)c2ccc(F)cc2)CC1 [Exemplary compound V-(6), 1-[4-[(6,7-dihydroxy-2-naphthylthio)acetylamino]-butyl]-4-[bis(4-fluorophenyl)methyl]piperazine]",Suppressive ratio (%) Experiment 2,[3]; 25 mg/kg,15.9%
same,inhibition at 10 µM,[1]; [5],5.9%
"COC(=O)CSc1ccc2cc(OC)c(OC)cc2c1 [Exemplary compound VI-(1), Methyl (6,7-dimethoxy-2-naphthylthio)acetate]",inhibition at 10 µM,[1]; [6],3.7%
same,Suppressive ratio (IgE antibody production),[4]; 10⁻⁶ M,69%
"COC(=O)CSc1ccc2cc(OC(C)=O)c(OC(C)=O)cc2c1 [Exemplary compound VI-(2), Methyl (6,7-diacetoxy-2-naphthyithio)acetate]",Inhibitory ratio (%) histamine release,[1]; [6],2.6%
"COC(=O)CSc1ccc2cc(OC(=O)OC)c(OC(=O)OC)cc2c1 [Exemplary compound VI-(3), Methyl (6,7-dimethoxycarbonyloxy-2-naphthylthio)acetate]",inhibition at 10 µM,[1]; [6],7.5%
"COC(=O)CSc1ccc2cc(OC(=O)OC(C)C)c(OC(=O)OC(C)C)cc2c1 [Exemplary compound VI-(4), Methyl (6,7-diisopropoxycarbonyloxy-2-naphthylthio)acetate]",inhibition at 10 µM,[1]; [6],17.8%
"COC(=O)C(C)Sc1ccc2cc(O)c(O)cc2c1 (stereo not shown) [Exemplary compound VII-(1), Methyl 2-(6,7-dihydroxy-2-naphthylthio)-propionate]",5-HETE (Inhibitory ratio %),Lipoxygenase,69%
same,LTB₄ (Inhibitory ratio %),Lipoxygenase,72%
same,Amount of LTB₄ produced,Lipoxygenase,35 ng/ml/plasma
same,Amount of 5-HETE produced,Lipoxygenase,40 ng/ml/plasma
Oc1cc2ccc(SCc3ccccc3)cc2cc1O [II-(1)],5-HETE (Inhibitory ratio %),Lipoxygenase,66%
same,LTB₄ (Inhibitory ratio %),Lipoxygenase,76%
same,Amount of LTB₄ produced,Lipoxygenase,30 ng/ml/plasma
same,Amount of 5-HETE produced,Lipoxygenase,45 ng/ml/plasma
"COc1ccc(/C=C/C(=O)Nc2ccccc2C(=O)O)cc1OC [Tranilast, reference compound]",Suppressive ratio (%) Experiment 1,[3]; 200 mg/kg,24.2%
same,Suppressive ratio (%) Experiment 2,[3]; 200 mg/kg,26.9%
same,inhibition at 10 µM,[1]; [5],24.4%
